Assay results: paper PMC4900596 (PLoS ONE, 2016)
Converted amounts (≈) assume the structure as drawn. Like-named read-outs stand apart in the source and are kept apart here.

Key:
[1] = system: human peripheral blood mononuclear cells (PBMCs); assay: Determination of the level of adenosine-5'-triphosphate (ATP), luciferase bioluminescence; assay type: cell-based; settings: for concentration from which a decrease in ATP level was observed / ATP level decreased by up to: 24 h; for concentration from which a decrease in ATP level was observed: significant vs control; for IC50: PBMC, human PBMCs, 24 h incubation, unit inferred, read-out: IC50 for changes in ATP level; for ATP level decreased by up to: 10 mM, control = 100%
Experimental: (§1) PBMCs were isolated from leucocyte-buffy coat collected from blood obtained in Blood Bank in Lodz, Poland. […] The testing was approved by the Bioethics Committee of the University of Lodz No. KBBN-UŁ/I/3/2013. PBMCs were diluted with PBS (1:4) and isolated using LSM (1.077 g/cm^3) by centrifugation at 600 g for 30 min at 20°C. PBMCs were collected, suspended in erythrocyte lysis buffer (150 mM NH4Cl, 10 mM NaHCO3, 1 mM EDTA, pH 7.4) and incubated for 5 min at 20°C. Then, PBS was added immediately, and the cells were centrifuged at 200 g for 15 min at 20°C. The supernatant was decanted, and the cells were washed twice with RPMI with L-glutamine and 10% fetal bovine serum (FBS) at 200 g for 15 min. The cells were resuspended in RPMI medium with L-glutamine, 10% FBS and penicylin-streptomycin (0.5%) and counted in haemocytometer. […] The viability of the cells was over 95%.
The level of ATP in the cells was determined by bioluminescence measurement at 560 nm using recombinant luciferase and its substrate, D-luciferin. The high sensitivity of method enables detection of 0.1 pM ATP. The reaction proceeds in two stages. In the first step, as a result of the reaction of ATP with luciferin, a complex of adenosine with luciferin is formed with simultaneous releasing of phosphate group. Secondly the complex reacts with oxygen resulting in a formation of oxyluciferin and adenosine monophosphate (AMP). Oxyluciferin returning from its excited state to the base state emits luminescence. The reaction requires the presence of magnesium ions.

[2] = system: human peripheral blood mononuclear cells (PBMCs); assay: Cell viability (necrotic changes), calcein-AM/propidium iodide staining, flow cytometry; assay type: cell-based; settings: for concentration from which a decrease in cell viability was noted: significant vs control (P < 0.05); for IC50: PBMC, human PBMCs, 24 h incubation, unit mM printed in b27 only
Experimental: as §1
The calcein-AM/propidum iodide (PI) viability test is commonly used in toxicity assays to detect cell membrane integrity and to quantify the number of viable and necrotic cells. The calcein-AM is hydrolyzed to calcein, which has a negative charge and penetrates living cells, staining them green. PI is one of the most widely used fluorescent markers for staining of necrotic cells. This compound penetrates the cells, in which membrane was damaged, and binds to DNA. This dye has two positive charges, which prevent it from entering intact cells. […] After the incubation, the samples were centrifuged at 300 g for 5 min at 4°C, the supernatant was decanted, and the cells were supplemented with RPMI with L-glutamine and 10% FBS. The samples were treated with calcein-AM and PI in the final concentrations of 0.1 and 1 μM, respectively and incubated for 15 min at 37°C in total darkness. The analysis was performed by flow cytometry (Becton Dickinson, LSR II). FCM gate on PBMCs has been established for data acquisition, and the fluorescence was measured with excitation/emission maxima of 494/517 nm and 535/617 nm for calcein and PI, respectively. The data were recorded for a total of 10,000 events per sample.

[3] = system: human peripheral blood mononuclear cells (PBMCs); assay: Measurement of cell morphology: size (FSC-A) and granularity (SSC-A) by flow cytometry; assay type: cell-based; settings: for concentration from which changes in PBMCs granularity (SSC-A) occurred / concentration causing statistically significant changes in FSC-A parameter: 24 h incubation; for activity at 10 µM / activity at 50 µM / activity at 100 µM / activity at 250 µM / activity at 500 µM / activity at 5000 µM: Homo sapiens, PBMC, 4 h; for activity at 10 µM: 0.01 mM; for activity at 50 µM: 0.05 mM; for activity at 100 µM: 0.1 mM; for activity at 250 µM: 0.25 mM; for activity at 500 µM: 0.5 mM; for activity at 5000 µM: 5.0 mM; for increase in FSC-A parameter / increase in SSC-A parameter: strongest change, concentration and time not given
Experimental: as §1
The cells were then analyzed using a flow cytometry (LSR II; Becton-Dickinson). FMC gate on PBMCs has been established for data acquisition, and cell size and granularity were evaluated with simultaneous separate detection of low-angle (FSC-A) and right-angle (SSC-A) light scattering. […] The light scattered near the forward direction (low angle) is expected to be proportional to particle size (volume), whereas scattering at the right angle depends on cell granularity (internal properties of the scattered particles).

PBMCs = settings: cited from earlier work
[4] = system: HUVEC cell line, human kidney cells 293, placenta JEG3 cells; settings: MTT; cited from earlier work
[5] = system: choriocarcinoma cell line; settings: MTT test; cited from earlier work
[6] = read-out: FSC-A (percent of control)
[7] = read-out: SSC-A (percent of control)

| Compound | concentration from which a decrease in ATP level was observed [1] | IC50 [1] | concentration from which a decrease in cell viability was noted ([2]; 24 h) | IC50 [2] | concentration from which changes in PBMCs granularity (SSC-A) occurred [3] | activity at 10 µM [3, 6] | activity at 10 µM [3, 7] | activity at 50 µM [3, 6] | activity at 50 µM [3, 7] | activity at 100 µM [3, 6] | activity at 100 µM [3, 7] | activity at 250 µM [3, 6] | activity at 250 µM [3, 7] | activity at 500 µM [3, 6] | activity at 500 µM [3, 7] | activity at 5000 µM [3, 6] | activity at 5000 µM [3, 7] | ATP level decreased by up to [1] | PBMCs viability decreased by up to ([2]; 10 mM, 24 h, control = 100%) | concentration causing statistically significant changes in FSC-A parameter [3] | further results |
| --- | --- | --- | --- | --- | --- | --- | --- | --- | --- | --- | --- | --- | --- | --- | --- | --- | --- | --- | --- | --- | --- |
| NCP(=O)(O)O [AMPA, aminomethylphosphonic acid] | ≥ 5 mM | > 10 mM | ≥ 0.5 mM | > 10 mM | ≥ 5 mM | 101 ± 4.61% | 101 ± 3.75% | 101 ± 4.45% | 100 ± 3.47% | 101 ± 5.04% | 101 ± 2.26% | 101 ± 3.96% | 101 ± 5.74% | 102 ± 3.93% | 101 ± 5.35% | 99.6 ± 5.18% | 102 ± 4.76% |  |  |  |  |
| O=P(O)(O)CNCP(=O)(O)O [Bis-(phosphonomethyl)amine, bis-(phosphonomethyl)amine] | ≥ 0.5 mM | 5.3 mM | ≥ 7.5 mM | 8.7 mM | ≥ 7.5 mM | 101 ± 2.38% | 98.4 ± 2.94% | 99.7 ± 2.54% | 100 ± 2.55% | 99.6 ± 2.04% | 100 ± 3.68% | 100 ± 2.68% | 100 ± 2% | 101 ± 3.34% | 101 ± 1.12% | 100 ± 3.88% | 103 ± 3.17% | 3.4% | 37.2% | ≥ 7.5 mM | increase in FSC-A parameter [3]: 9%; increase in SSC-A parameter [3]: 92% |
| O=C(O)CNCP(=O)(O)O [Glyphosate, N-phosphonomethylglycine, reference compound] | ≥ 5 mM | 9.6 mM |  | > 10 mM | ≥ 0.5 mM | 102 ± 3.55% | 99.2 ± 4.71% | 102 ± 2.94% | 99.7 ± 7.75% | 102 ± 2.38% | 101 ± 9.59% | 102 ± 4.69% | 101 ± 8.1% | 102 ± 3.89% | 102 ± 5.94% | 101 ± 3% | 104 ± 7.27% |  |  |  | decrease in cell viability ([2]; 10 mM, 24 h, control = 100%): 2.7%; IC50 (cytotoxic effects) (PBMCs): 56.4 mg/L (≈ 334 µM); concentration significantly affecting cell viability [4]: 100 µM; EC50 [5]: 16 mM |
| O=P(O)(O)CO [Hydroxy-methylphosphonic acid, hydroxymethylphosphonic acid] | ≥ 5 mM | > 10 mM | ≥ 7.5 mM | > 10 mM | ≥ 5 mM | 100 ± 2% | 96.8 ± 4.77% | 100 ± 1.84% | 97.6 ± 4.71% | 100 ± 1.91% | 99.4 ± 1.17% | 101 ± 3.68% | 100 ± 3.33% | 100 ± 2.4% | 101 ± 2.05% | 100 ± 2.94% | 102 ± 2.14% |  |  |  |  |
| CN(CC(=O)O)CP(=O)(O)O [N-methylglyphosate] | ≥ 0.5 mM | > 10 mM | ≥ 7.5 mM | > 10 mM | ≥ 5 mM | 102 ± 3.97% | 101 ± 4.68% | 102 ± 2.66% | 101 ± 4.81% | 103 ± 3.27% | 102 ± 3.57% | 101 ± 5.72% | 102 ± 4.73% | 101 ± 4.66% | 102 ± 8.82% | 100 ± 4.82% | 102 ± 7.27% |  |  |  |  |
| O=C(O)CN(CC(=O)O)CP(=O)(O)O [PMIDA, N-(phosphonomethyl)iminodiacetic acid] | ≥ 5 mM | 6.1 mM | ≥ 5 mM | 7.9 mM | 10 mM | 100 ± 2.09% | 97.5 ± 4.97% | 100 ± 2.21% | 98.1 ± 5.81% | 100 ± 3.36% | 99.2 ± 5.42% | 100 ± 2.65% | 99.3 ± 4.63% | 100 ± 2.65% | 99.8 ± 6.3% | 101 ± 4.59% | 105 ± 5.12% | 2.1% | 3.4% | 10 mM | increase in FSC-A parameter [3]: 13%; increase in SSC-A parameter [3]: 150% |
